Measured values taken from US11045457B2, “Piperidinyl-3-(aryloxy)propanamides and propanoates” (priority 2018, dated 2021).

target: SSTR4 (Homo sapiens (Human), UniProt P31391); experiment: Inhibition of forskolin stimulated cAMP in CHO-K1 cells overexpressing SSTR4; format: cell-based; conditions: not given
Experimental: Inhibition of Forskolin Stimulated cAMP in Cells Overexpressing SSTR4
This cell-based assay measures the ability of compounds to inhibit forskolin stimulated cAMP in CHO-K1 cells overexpressing SSTR4. CHO-K1 cells overexpressing SSTR4 (CHO-SSTR4) are purchased from DiscoveRx (product code 95-0059C2). The CHO-SSTR4 cells are maintained in F12K media with 10% Fetal Bovine Serum (Hyclone), 1% Pen/Strep (Life Technologies), and 800 μg/mL G418 (Life Technologies). […] The next day, the culture media is removed from the cells and the cells are washed (added then removed) with Kreb's Ringer Buffer (ZenBio, KRB-1000 mL). […] The cells are incubated in […] for 30 minutes at room temperature. Cellular cAMP levels are detected with a HTRF LANCE Ultra cAMP kit (Perkin Elmer, catalog number TRF0264).
The assay is performed in accordance with the manufacturer's instructions. Five μL of diluted Eu-W8044 labeled streptavidin (dilution: 1:50 in cAMP Detection Buffer) is added to each well. Then 5 μL of diluted biotin cAMP (dilution: 1:150 in cAMP Detection Buffer) is added to each well. The plates are covered and allowed to incubate for 60 minutes at room temperature on a shaker. […] The pEC50 values are generated using Activity Base for Screening Data Management.

Chain of SSTR4 (P31391 whole entry): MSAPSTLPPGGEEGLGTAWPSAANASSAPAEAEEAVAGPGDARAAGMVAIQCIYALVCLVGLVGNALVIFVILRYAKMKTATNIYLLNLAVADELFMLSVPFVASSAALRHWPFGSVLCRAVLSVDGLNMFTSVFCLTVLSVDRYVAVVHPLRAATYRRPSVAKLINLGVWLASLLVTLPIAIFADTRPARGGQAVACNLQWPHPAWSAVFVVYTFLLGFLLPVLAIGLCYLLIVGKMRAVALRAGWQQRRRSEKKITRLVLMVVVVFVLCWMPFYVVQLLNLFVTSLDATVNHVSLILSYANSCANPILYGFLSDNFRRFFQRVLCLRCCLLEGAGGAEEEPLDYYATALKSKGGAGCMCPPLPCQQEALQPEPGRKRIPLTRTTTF

SSTR4 Activity pEC50	Compound
6.2	Cc1cnc(OCC(C)(C)C(=O)N[C@@H]2CCN(C)C[C@H]2C)c(C)c1 (single isomer, unassigned) [Example 140]
6.3	Cc1cccnc1OCC(C)(C)C(=O)NC1CCN(C)C1 (stereo not shown) [Example 2, 2,2-dimethyl-3-((3-methylpyridin-2-yl)oxy)-N-(1-methylpyrrolidin-3-yl)propanamide]
5.8	CN1CCC(NC(=O)C(C)(C)COc2ncccc2C#N)CC1 [Example 3, 3-((3-cyanopyridin-2-yl)oxy)-2,2-dimethyl-N-(1-methylpiperidin-4-yl)propanamide]
6.5	CN1CC[C@@H](NC(=O)C(C)(C)COc2ncncc2C2CC2)C1 [Example 4, (R)-3-((5-cyclopropylpyrimidin-4-yl)oxy)-2,2-dimethyl-N-(1-methylpyrrolidin-3-yl)propanamide]
6.8	CN1CCC(NC(=O)C(C)(C)COc2ncncc2C2CC2)CC1 [Example 5, 3-((5-cyclopropylpyrimidin-4-yl)oxy)-2,2-dimethyl-N-(1-methylpiperidin-4-yl)propanamide]
7.3	Cc1cnc(OCC(C)(C)C(=O)NC2CCN(C)CC2)c(C2CC2)c1 [Example 6, 3-((3-cyclopropyl-5-methylpyridin-2-yl)oxy)-2,2-dimethyl-N-(1-methylpiperidin-4-yl)propanamide]
7.2	Cc1cnc(OCC(C)(C)C(=O)N[C@@H]2CCN(C)C2)c(C2CC2)c1 [Example 7, (R)-3-((3-cyclopropyl-5-methylpyridin-2-yl)oxy)-2,2-dimethyl-N-(1-methylpyrrolidin-3-yl)propanamide]
7.0	Cc1cc(C2CC2)cnc1OCC(C)(C)C(=O)NC1CCN(C)CC1 [Example 8, 3-((5-cyclopropyl-3-methylpyridin-2-yl)oxy)-2,2-dimethyl-N-(1-methylpiperidin-4-yl)propanamide]
7.1	Cc1ccc(C2CC2)c(OCC(C)(C)C(=O)NC2CCN(C)CC2)n1 [Example 9, 3-((3-cyclopropyl-6-methylpyridin-2-yl)oxy)-2,2-dimethyl-N-(1-methylpiperidin-4-yl)propanamide]
6.8	Cc1ccc(C2CC2)c(OCC(C)(C)C(=O)N[C@@H]2CCN(C)C2)n1 [Example 10, (R)-3-((3-cyclopropyl-6-methylpyridin-2-yl)oxy)-2,2-dimethyl-N-(1-methylpyrrolidin-3-yl)propanamide]
6.5	CN1CC(NC(=O)C(C)(C)COc2ncccc2C(F)(F)F)CC1(C)C (stereo not shown) [Example 35, 2,2-dimethyl-3-((3-(trifluoromethyl)pyridin-2-yl)oxy)-N-(1,5,5-trimethylpyrrolidin-3-yl)propanamide]
6.1	CN1CC[C@H](CNC(=O)C(C)(C)COc2ncccc2C(F)(F)F)C1 [Example 36, (R)-2,2-dimethyl-N-((1-methylpyrrolidin-3-yl)methyl)-3-((3-(trifluoromethyl)pyridin-2-yl)oxy)propanamide]
6.3	CN1CC[C@@H](CNC(=O)C(C)(C)COc2ncccc2C(F)(F)F)C1 [Example 37, (S)-2,2-dimethyl-N-((1-methylpyrrolidin-3-yl)methyl)-3-((3-(trifluoromethyl)pyridin-2-yl)oxy)propanamide]

Compound	SSTR4 Activity pEC50
C[C@@H]1CN(C)CC[C@H]1NC(=O)C(C)(C)COc1ncccc1C(F)(F)F (single isomer, unassigned) [Example 106]	6.0

same assay, conditions: read-out: SSTR4 Activity pEC50 (converted)

EC50 [nM]	Compound
12.6	C[C@@H]1CN(C)CC[C@H]1NC(=O)C(F)(F)COc1ncccc1C1CC1 (relative stereo) [Example 192, trans-3-((3-cyclopropylpyridin-2-yl)oxy)-N-(1,3-dimethylpiperidin-4-yl)-2,2-difluoropropanamide]
1	CC[C@@H]1CN(C)CC[C@H]1NC(=O)C(C)(C)COc1ncccc1C(F)(F)F (single isomer, unassigned) [Example 110, trans-N-(3-ethyl-1-methylpiperidin-4-yl)-2,2-dimethyl-3-((3-(trifluoromethyl)pyridin-2-yl)oxy)propanamide]
